Assay results from ChEMBL document CHEMBL4393734, “Structure-aided optimization of 3-O-β-chacotriosyl ursolic acid as novel H5N1 entry inhibitors with high selective index” (Bioorg Med Chem, 2019).
The source made the active and inactive calls. No cut-off for these calls is given here.

What was measured:
Influenza A virus [1] = experiment: Antiviral activity against influenza A virus A/Duck/Guangdong/99(H5N1) infected in MDCK cells assessed as reduction in virus induced cytopathic effect preincubated for 30 mins with virus followed by viral infection and measured after 48 hrs by microscopy analysis; type: functional, organism-based
[2] = Cytotoxicity against dog MDCK cells measured after 48 hrs by MTT assay; type: cell-based, Canis lupus familiaris
[3] = Selectivity index, ratio of CC50 for dog MDCK cells to IC50 for influenza A virus A/Duck/Guangdong/99(H5N1); type: toxicity; details: read-out: Ratio CC50/IC50
Influenza A virus [4] = experiment: Antiviral activity against influenza A virus A/Duck/Guangdong/99(H5N1) infected in MDCK cells assessed as inhibition of viral replication measured after 48 hr post infection by FITC/DAPI-staining based immunofluorescence microscopy assay; type: functional, organism-based
Influenza A virus [5] = experiment: Antiviral activity against influenza A virus H5N1 pseudovirus with HA (A/Thailand/Kan353/2004(H5N1) - HA/NA (A/Thailand/Kan353/2004(H5N1) -NA/HIV core plasmids infected in MDCK cells assessed as pseudovirus neutralization incubated for 30 mins with virus followed by viral infection and measured after 48 hrs by luciferase assay; type: functional, organism-based
[6] = biological target: Neuraminidase (Influenza A virus (A/Puerto Rico/8/1934(H1N1))) (UniProt P03468); experiment: Inhibition of Influenza A virus (A/Puerto Rico/8/34(H1N1) neuraminidase N1 using MUNANA as substrate preincubated for 30 mins followed by substrate addition and further incubated for 1 hr in dark by microplate reader based fluorescence assay
[7] = biological target: Hemagglutinin (Influenza A virus) (UniProt B4URE7); experiment: Inhibition of influenza A virus HA-mediated chicken erythrocytes hemagglutination measured after 1 hr
Hemagglutinin = Hemagglutinin (Influenza A virus, UniProt B4URE7); experiment: Binding affinity to influenza A virus hemagglutin by surface plasmon resonance assay
[8] = Binding affinity to influenza A virus hemagglutinin 1 by surface plasmon resonance assay
[9] = tested on: Vesicular stomatitis virus; experiment: Antiviral activity against VSV-G pseudovirus infected in MDCK cells assessed as pseudovirus neutralization preincubated for 30 mins with virus and followed by viral infection and measured after 48 hrs by luciferase assay; type: functional, organism-based

Chain of Neuraminidase (Influenza A virus (A/Puerto Rico/8/1934(H1N1))) (P03468 whole entry): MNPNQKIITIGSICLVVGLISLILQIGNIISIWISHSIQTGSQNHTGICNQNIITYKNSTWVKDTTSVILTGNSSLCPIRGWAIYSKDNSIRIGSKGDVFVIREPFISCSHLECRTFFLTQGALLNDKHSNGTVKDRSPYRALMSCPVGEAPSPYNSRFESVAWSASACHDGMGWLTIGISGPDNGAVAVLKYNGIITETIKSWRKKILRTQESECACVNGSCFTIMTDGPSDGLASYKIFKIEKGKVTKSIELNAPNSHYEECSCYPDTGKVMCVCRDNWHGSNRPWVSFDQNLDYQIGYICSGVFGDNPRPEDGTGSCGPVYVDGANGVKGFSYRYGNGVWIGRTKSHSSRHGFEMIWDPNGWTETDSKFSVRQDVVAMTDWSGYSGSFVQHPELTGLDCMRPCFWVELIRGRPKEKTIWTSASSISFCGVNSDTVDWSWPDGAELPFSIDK
Chain of Hemagglutinin (B4URE7 whole entry): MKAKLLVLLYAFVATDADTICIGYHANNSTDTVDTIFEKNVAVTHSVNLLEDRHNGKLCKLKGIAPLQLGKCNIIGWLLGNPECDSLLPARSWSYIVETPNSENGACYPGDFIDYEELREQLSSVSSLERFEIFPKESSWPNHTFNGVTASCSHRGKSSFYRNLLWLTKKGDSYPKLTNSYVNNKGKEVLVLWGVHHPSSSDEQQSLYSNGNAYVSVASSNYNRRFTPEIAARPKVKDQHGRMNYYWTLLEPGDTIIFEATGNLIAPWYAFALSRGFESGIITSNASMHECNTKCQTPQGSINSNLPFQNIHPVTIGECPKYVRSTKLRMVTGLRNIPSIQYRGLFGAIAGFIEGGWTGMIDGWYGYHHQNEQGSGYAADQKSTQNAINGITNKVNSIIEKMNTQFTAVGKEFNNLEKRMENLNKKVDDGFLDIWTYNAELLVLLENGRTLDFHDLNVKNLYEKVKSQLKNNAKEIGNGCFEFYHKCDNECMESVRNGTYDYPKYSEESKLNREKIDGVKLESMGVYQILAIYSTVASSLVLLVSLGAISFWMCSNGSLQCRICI
Chain of Hemagglutinin (Influenza A virus) (B4URE7 as listed by the source): as the sequence (B4URE7 whole entry) above

| SMILES | IC50 (Influenza A virus [1]) | CC50 at 48 h [2] | selectivity ratio [3] | also measured |
| --- | --- | --- | --- | --- |
| C[C@H]1[C@H](C)CC[C@]2(C(=O)Nc3ccc(F)cc3)CC[C@]3(C)C(=CC[C@@H]4[C@@]5(C)CC[C@H](O[C@@H]6O[C@H](CO)[C@@H](O[C@@H]7O[C@@H](C)[C@H](O)[C@@H](O)[C@H]7O)[C@H](O)[C@H]6O[C@@H]6O[C@@H](C)[C@H](O)[C@@H](O)[C@H]6O)C(C)(C)[C@@H]5CC[C@]43C)[C@H]12 | 5.28 µM | > 1000 µM | > 189 |  |
| C[C@H]1[C@H](C)CC[C@]2(C(=O)Nc3ccc(Br)cc3)CC[C@]3(C)C(=CC[C@@H]4[C@@]5(C)CC[C@H](O[C@@H]6O[C@H](CO)[C@@H](O[C@@H]7O[C@@H](C)[C@H](O)[C@@H](O)[C@H]7O)[C@H](O)[C@H]6O[C@@H]6O[C@@H](C)[C@H](O)[C@@H](O)[C@H]6O)C(C)(C)[C@@H]5CC[C@]43C)[C@H]12 | > 50 µM |  |  |  |
| COc1cccc(NC(=O)[C@]23CC[C@@H](C)[C@H](C)[C@H]2C2=CC[C@@H]4[C@@]5(C)CC[C@H](O[C@@H]6O[C@H](CO)[C@@H](O[C@@H]7O[C@@H](C)[C@H](O)[C@@H](O)[C@H]7O)[C@H](O)[C@H]6O[C@@H]6O[C@@H](C)[C@H](O)[C@@H](O)[C@H]6O)C(C)(C)[C@@H]5CC[C@@]4(C)[C@]2(C)CC3)c1 | 5.92 µM | > 1000 µM | > 113 |  |
| COc1ccc(CNC(=O)[C@]23CC[C@@H](C)[C@H](C)[C@H]2C2=CC[C@@H]4[C@@]5(C)CC[C@H](O[C@@H]6O[C@H](CO)[C@@H](O[C@@H]7O[C@@H](C)[C@H](O)[C@@H](O)[C@H]7O)[C@H](O)[C@H]6O[C@@H]6O[C@@H](C)[C@H](O)[C@@H](O)[C@H]6O)C(C)(C)[C@@H]5CC[C@@]4(C)[C@]2(C)CC3)cc1 | 8.72 µM | 100 µM | 11.5 |  |
| C[C@H]1[C@H](C)CC[C@]2(C(=O)Nc3ccccc3Cl)CC[C@]3(C)C(=CC[C@@H]4[C@@]5(C)CC[C@H](O[C@@H]6O[C@H](CO)[C@@H](O[C@@H]7O[C@@H](C)[C@H](O)[C@@H](O)[C@H]7O)[C@H](O)[C@H]6O[C@@H]6O[C@@H](C)[C@H](O)[C@@H](O)[C@H]6O)C(C)(C)[C@@H]5CC[C@]43C)[C@H]12 | 2.98 µM | 306 µM | 103 |  |
| C[C@H]1[C@H](C)CC[C@]2(C(=O)O)CC[C@]3(C)C(=CC[C@@H]4[C@@]5(C)CC[C@H](O[C@@H]6O[C@H](CO)[C@@H](O[C@@H]7O[C@@H](C)[C@H](O)[C@@H](O)[C@H]7O)[C@H](O)[C@H]6O[C@@H]6O[C@@H](C)[C@H](O)[C@@H](O)[C@H]6O)C(C)(C)[C@@H]5CC[C@]43C)[C@H]12 | 16.4 µM | 25.3 µM | 1.5 |  |
| C[C@H]1[C@H](C)CC[C@]2(C(=O)Nc3ccc(OC(F)(F)F)cc3)CC[C@]3(C)C(=CC[C@@H]4[C@@]5(C)CC[C@H](O[C@@H]6O[C@H](CO)[C@@H](O[C@@H]7O[C@@H](C)[C@H](O)[C@@H](O)[C@H]7O)[C@H](O)[C@H]6O[C@@H]6O[C@@H](C)[C@H](O)[C@@H](O)[C@H]6O)C(C)(C)[C@@H]5CC[C@]43C)[C@H]12 | 8.56 µM | 451 µM | 52.6 |  |
| C[C@H]1[C@H](C)CC[C@]2(C(=O)Nc3ccccc3)CC[C@]3(C)C(=CC[C@@H]4[C@@]5(C)CC[C@H](O[C@@H]6O[C@H](CO)[C@@H](O[C@@H]7O[C@@H](C)[C@H](O)[C@@H](O)[C@H]7O)[C@H](O)[C@H]6O[C@@H]6O[C@@H](C)[C@H](O)[C@@H](O)[C@H]6O)C(C)(C)[C@@H]5CC[C@]43C)[C@H]12 | 5.85 µM | > 1000 µM | > 171 |  |
| C[C@H]1[C@H](C)CC[C@]2(C(=O)Nc3cccc(Cl)c3)CC[C@]3(C)C(=CC[C@@H]4[C@@]5(C)CC[C@H](O[C@@H]6O[C@H](CO)[C@@H](O[C@@H]7O[C@@H](C)[C@H](O)[C@@H](O)[C@H]7O)[C@H](O)[C@H]6O[C@@H]6O[C@@H](C)[C@H](O)[C@@H](O)[C@H]6O)C(C)(C)[C@@H]5CC[C@]43C)[C@H]12 | 7.35 µM | > 1000 µM | > 136 |  |
| COc1ccccc1NC(=O)[C@]12CC[C@@H](C)[C@H](C)[C@H]1C1=CC[C@@H]3[C@@]4(C)CC[C@H](O[C@@H]5O[C@H](CO)[C@@H](O[C@@H]6O[C@@H](C)[C@H](O)[C@@H](O)[C@H]6O)[C@H](O)[C@H]5O[C@@H]5O[C@@H](C)[C@H](O)[C@@H](O)[C@H]5O)C(C)(C)[C@@H]4CC[C@@]3(C)[C@]1(C)CC2 | 1.05 µM | > 1000 µM | > 952 | Activity (Influenza A virus [4]): Dose-dependent effect; IC50 (Influenza A virus [5]): 1.28 µM; inhibition [6]: inactive; inhibition [7]: Dose-dependent effect; Kd (Hemagglutinin): 0.00122 µM; Kd [8]: 0.44 µM; inhibition [9]: inactive |
| C[C@H]1[C@H](C)CC[C@]2(C(=O)N3CCCC3)CC[C@]3(C)C(=CC[C@@H]4[C@@]5(C)CC[C@H](O[C@@H]6O[C@H](CO)[C@@H](O[C@@H]7O[C@@H](C)[C@H](O)[C@@H](O)[C@H]7O)[C@H](O)[C@H]6O[C@@H]6O[C@@H](C)[C@H](O)[C@@H](O)[C@H]6O)C(C)(C)[C@@H]5CC[C@]43C)[C@H]12 | 3.25 µM | 42.4 µM | 13 |  |
| C[C@H]1[C@H](C)CC[C@]2(C(=O)Nc3ccc(Cl)cc3)CC[C@]3(C)C(=CC[C@@H]4[C@@]5(C)CC[C@H](O[C@@H]6O[C@H](CO)[C@@H](O[C@@H]7O[C@@H](C)[C@H](O)[C@@H](O)[C@H]7O)[C@H](O)[C@H]6O[C@@H]6O[C@@H](C)[C@H](O)[C@@H](O)[C@H]6O)C(C)(C)[C@@H]5CC[C@]43C)[C@H]12 | 3.48 µM | > 1000 µM | > 287 | inhibition [6]: inactive |
| COc1ccc(NC(=O)[C@]23CC[C@@H](C)[C@H](C)[C@H]2C2=CC[C@@H]4[C@@]5(C)CC[C@H](O[C@@H]6O[C@H](CO)[C@@H](O[C@@H]7O[C@@H](C)[C@H](O)[C@@H](O)[C@H]7O)[C@H](O)[C@H]6O[C@@H]6O[C@@H](C)[C@H](O)[C@@H](O)[C@H]6O)C(C)(C)[C@@H]5CC[C@@]4(C)[C@]2(C)CC3)cc1 | 2.12 µM | > 1000 µM | > 472 | inhibition [6]: inactive |
| C[C@H]1[C@H](C)CC[C@]2(C(=O)NCc3ccccc3)CC[C@]3(C)C(=CC[C@@H]4[C@@]5(C)CC[C@H](O[C@@H]6O[C@H](CO)[C@@H](O[C@@H]7O[C@@H](C)[C@H](O)[C@@H](O)[C@H]7O)[C@H](O)[C@H]6O[C@@H]6O[C@@H](C)[C@H](O)[C@@H](O)[C@H]6O)C(C)(C)[C@@H]5CC[C@]43C)[C@H]12 | 9.35 µM | 123 µM | 13.2 |  |
| CNC(=O)[C@]12CC[C@@H](C)[C@H](C)[C@H]1C1=CC[C@@H]3[C@@]4(C)CC[C@H](O[C@@H]5O[C@H](CO)[C@@H](O[C@@H]6O[C@@H](C)[C@H](O)[C@@H](O)[C@H]6O)[C@H](O)[C@H]5O[C@@H]5O[C@@H](C)[C@H](O)[C@@H](O)[C@H]5O)C(C)(C)[C@@H]4CC[C@@]3(C)[C@]1(C)CC2 | 11.2 µM | 683 µM | 60.7 |  |
| C[C@H]1[C@H](C)CC[C@]2(C(=O)NCCN(C)C)CC[C@]3(C)C(=CC[C@@H]4[C@@]5(C)CC[C@H](O[C@@H]6O[C@H](CO)[C@@H](O[C@@H]7O[C@@H](C)[C@H](O)[C@@H](O)[C@H]7O)[C@H](O)[C@H]6O[C@@H]6O[C@@H](C)[C@H](O)[C@@H](O)[C@H]6O)C(C)(C)[C@@H]5CC[C@]43C)[C@H]12 | > 50 µM |  |  |  |
